How the values were obtained:
[1] = Octanol/water partition coefficient by HPLC
Method: (§1) The solubility and partition coefficient data for 2 and taxol were determined using an HPLC method.
(§2) Solubility was found by forming a solution in water with the aid of sonication for five minutes, centrifugation of the samples, and injection of the supernatant. The values reported were normalized using calibration curves constructed for both compounds by preparing known concentrations in the range 1×10^-6 to 1×10^-3 M in methylene chloride and subjecting to HPLC analysis under the same conditions. […] Partition coefficients were determined by dissolving the compound in the organic phase, shaking the resulting solution with water for ten minutes, and analyzing each phase by HPLC as above.

[2] = system: tubulin; assay: Microtubule polymerization-depolymerization measurements (turbidity at 340 nm); assay type: biochemical; settings: for suppression of calcium chloride promoted depolymerization: 10^-6 M drug, 1.0 mg/mL tubulin, 0.25 mM CaCl2, 37° C.
Method: Tubulin polymerization-depolymerization measurements are illustrate in FIG. 3. Negative controls are shown with triangles; positive taxol controls are shown with diamonds; and taxol-2'-MPT, i.e., compound 2 is shown with dots.
More particularly, measurement were performed in 96 well plates at 37° C. following the protocol of R. Merlock and W. Wrasidlo (Analytical Biochemistry 1993, in press). Calcium chloride addition is indicated by the arrow. In each case, 1.0 mM GTP was used to promote the initial polymerization of tubulin. Negative control employed tubulin (1.0 mg/mL) alone, CaCl2 (0,25 mM) added after 20 minutes. Positive taxol control employed tubulin (1.0 mg/mL) with taxol (10^-6 M) and CaCl2 (0.25 mM) added after 20 minutes. The experimental taxol-2'-MPTemployed tubulin (1.0 mg/mL) with taxol-2'-MPT (10^-6) and CaCl2 (0.25 mM) added after 20 minutes. Turbidity was measured as optical density at 340 nm using a microplate reader (Molecular Devices Thermomax).

[3] = background statement; cited from earlier work
[4] = system: albumin; settings: sera; cited from earlier work
[5] = system: tubulin; settings: background; cited from earlier work
[6] = system: human leukemia; assay: Cytotoxicity (XTT, 72 hours), human leukemia
Method: (§6) More particularly, cells were plated on 96 well plates with the following controls: no cells and toxic control (1×10^-3 M SDS). The drug was added to the first set of wells and diluted via standard dilution method from the stock. Plates were incubated at 37° C., 5% CO2 in sterile air in an humidified incubator for 72 hours. An aliquot of 50 L of a solution of 2,3-bis(methoxy-4-nitro-5-sulfophenyl)-5-[(phenylamino)carbonyl]-1H-tetrazolium hydroxide (XTT), 1 mg mL^-1, in phosphate buffered saline (PBS, 100 mM) was added to the wells. In the presence of viable cells, this colorless clear media is enzymatically altered to give a pink coloration. […] Percentage cytotoxicity was calculated using the formula: %C=1--(OD toxin)(OD growth control)^-1 (100).

[7] = system: cervical carcinoma; assay: Cytotoxicity (XTT, 72 hours), cervical carcinoma
Method: as §6

[8] = system: metastatic melanoma; assay: Cytotoxicity (XTT, 72 hours), metastatic melanoma
Method: as §6

[9] = Solubility in water by HPLC (sonication, centrifugation, injection of supernatant); assay type: physicochemical
Method: as §1, §2

[10] = Stability of taxol-2'-MPT by HPLC (solid state, aqueous media); assay type: physicochemical
Method: (§3) Due to a difference in retention time using our standard HPLC conditions (see FIG. 1) and differing ultraviolet absorption maxima (1280 /1254 =1.6 for 2 and 0.3 for 1), the stability of 2 was easily assayed by HPLC (FIG. 1). […] In phosphate buffered saline (PBS) or ammonium acetate--phosphate buffer systems of pH 6.0 to 7.3, 2 is stable at 25° C. for over 21 days. Taxol-2'-MPT (2) is, however, unstable in 5% HCl (pH 1.1) and brine.

[11] = Stability/kinetics of taxol release from taxol-2'-MPT in plasma; assay type: in vitro ADME, human
Method: as §3
(§4) Under these conditions 20% of total is recovered. More particularly, Taxol-2'-MPT (2) was dissolved in the aqueous system with the aid of sonication for five minutes. Aliquots were then removed at the times shown and partitioned into methylene chloride to quench the reaction. Samples were then analyzed using a Waters Maxima HPLC instrument equipped with an autoinjector (3.9×300 mm C18 column equipped with a precolumn. The flow rate was 1.5 mL/minute. The eluent gradient A-B extended over 30 minutes. "A" was 80% 80 mM ammonium acetate, pH 6.0. "B" was 100% methanol. An ultraviolet diode array detector was employed. The ratio of compound 2 (Rf 16.2 min.) to taxol (compound 1, Rf 16.8 min.) remaining was determined from the relative areas of the peaks after normalization with previously determined calibration curves.

[12] = Kinetics of taxol release from taxol-2'-MPT in aqueous solutions at 25° C.; assay type: physicochemical; settings: sterile water, pH 6.2 PBS or 5% dextrose, over 11 minutes
Method: as §4

[13] = Self-assembly: optical clarity, OD at 340 nm, TEM; assay type: physicochemical; settings: for morphology of self-assembled structures in buffered solutions: 1 mM in 100 mM PBS
From the text: Transmission electron microscopy (TEM) confirmed the presence of supramolecular structures in these solutions. […] It is likely that the long term stability of these solutions is due, at least in part, to stabilization provided by this structured environment.

[14] = system: serum protein; assay: Displacement of MPT group by serum protein
From the text: (§5) However, the release of taxol from taxol-2'-MPT can also be catalyzed by serum protein and by proteins having nucleophilic groups. […] Dialysis of the protein:taxol intermediate indicates a dissociation period of hours or days. Displacement of the MPT group by serum proteins seems to be specific for such serum proteins. […] The precise nature of the bonding between the protein and taxol has not been characterized. Scheme 2 illustrates alternative pathways for MPT release.

[15] = system: immunoglobulins; assay: Displacement of MPT group by immunoglobulins
From the text: as §5

[16] = system: serum albumen; assay: Displacement of MPT group by serum albumin
From the text: as §5

[17] = system: non-serum proteins; assay: Displacement of MPT group by non-serum proteins
From the text: as §5

[18] = system: A549 non-small cell lung adenocarcinoma; assay: Efficacy in lung tumor xenograft nude mouse model
Method: The tumor model was generated from an ATCC A549 non-small cell lung adenocarcinoma cell line that was maintained under the standard cell proliferation conditions (37° C., 5% carbon dioxide in sterile air). Hemocytometer counted cells suspended in Hanks medium (Gibco, Grand Island N.Y.) were implanted S.C.

[19] = water, 5% dextrose, 1.5% saline

CC(=O)O[C@H]1C(=O)[C@@]2(C)[C@H]([C@H](OC(=O)c3ccccc3)[C@]3(O)C[C@H](OC(=O)[C@H](O)[C@@H](NC(=O)c4ccccc4)c4ccccc4)C(C)=C1C3(C)C)[C@]1(OC(C)=O)CO[C@@H]1C[C@@H]2O [taxol, reference compound]
Partition Coefficient [octanol]/[water] [1]: > 10000 | suppression of calcium chloride promoted depolymerization [2]: suppressed by taxol | microtubule stabilization by taxol recovered from human plasma treated with 2 ([2]; taxol recovered from plasma): exhibited the expected microtubule stabilization | water solubility [3]: less than 1.5×10^-6 molar | taxol binding to albumin [4]: ca. 85% | effect of taxol binding on tubulin [5]: prevents its polymerization and the formation of microtubules | cytotoxicity level, human leukemia [6]: Extremely high | cytotoxicity level, cervical carcinoma [7]: Extremely high | cytotoxicity level, metastatic melanoma [8]: Extremely high

CC(=O)O[C@H]1C(=O)[C@@]2(C)[C@H]([C@H](OC(=O)c3ccccc3)[C@]3(O)C[C@H](OC(=O)[C@H](Oc4cccc[n+]4C)[C@@H](NC(=O)c4ccccc4)c4ccccc4)C(C)=C1C3(C)C)[C@]1(OC(C)=O)CO[C@@H]1C[C@@H]2O [taxol-2'-MPT]
degradation during solubility and partition studies [9]: No degradation | solubility compared with clinically relevant dosages (3 to 30 mM) ([9]; range of aqueous systems): higher than the clinically relevant dosages | water solubility compared with parent taxol ([9]; relative to taxol): significantly more soluble in water than the parent taxol | solubility ([9]; water, HPLC, table value): 1700 µM | logP [1]: 1.7 | stability in 5% HCl and brine ([10]; 5% HCl (pH 1.1) and brine): unstable | degradation products detected ([10]; HPLC): taxol and the pyridinone that results from hydrolysis of pyridinium salts | stability period in buffer ([10]; PBS or ammonium acetate-phosphate buffer, pH 6.0 to 7.3, 25° C.): over 21 days | stability in aqueous media (discussion) ([10]; aqueous media, physiological pH and ion strength): essentially completely stable | stability in most aqueous media (discussion) ([10]; most aqueous media): remarkably stable | onset of slow degradation [10, 19]: > 4 days | stability in water, 5% dextrose, and 1.5% saline [10, 19]: stable for several days | degradation in human plasma ([11]; human plasma, 37° C.): breaks down rapidly | recovery ([11]; human, plasma, methylene chloride extraction, read-out: total recovered from plasma): 20% | total recovered from plasma ([11]; plasma, methylene chloride extraction): 20% | time to complete conversion of 2 into taxol in plasma ([11]; plasma, methylene chloride extraction, 25° C. per FIG. 1): ≤ 10 min | discharge of taxol in sera ([11]; sera): rapidly discharges taxol in sera | taxol release in aqueous media [12]: no taxol release is observed | morphology of self-assembled structures in buffered solutions ([13]; TEM): self-assembled helical fibrous nanostructures | morphology of self-assembled structures in buffered solutions ([13]; TEM, listed as 2): Uniform aggregates of fibrillar structure | morphology of self-assembled structures in unbuffered solutions ([13]; 1 mM in H2O, TEM): self-assembled spherical nanostructures | diameter of fibrillar aggregates ([13]; TEM): ca. 80 Å | helical twist of aggregates ([13]; TEM): about 7 | length of fibrillar aggregates ([13]; TEM): up to 800 Å | concentration above which haze is exhibited ([13]; buffered solutions): greater than 1×10^-3 M | critical concentration (exponential increase in OD at 340 nm) ([13]; buffered solutions, 340 nm): 400 µM | diameter of spherical structures ([13]; freshly sonicated solutions, TEM): about 50 Å | optical appearance of water solutions ([13]; water, all concentrations examined): optically clear | suppression of calcium chloride promoted depolymerization [2]: not by taxol-2'-MPT | microtubule polymerization-depolymerization ([2]; GTP-saline controls and taxol as comparators): very similar to GTP-saline controls and drastically different from taxol | effect on tubulin-microtubule equilibria ([2]; buffered aqueous assay): does not affect the tubulin-microtubule equilibria | binding to tubulin ([2]; inferred from the polymerization assay): does not appear to bind to tubulin in the manner of taxol | displacement of MPT group on contact with serum protein [14]: observed to displace its MPT group and form a protein:taxol intermediate | effectiveness in displacing MPT group, immunoglobulins [15]: particularly effective | effectiveness in displacing MPT group, serum albumin [16]: particularly effective | MPT-displacing activity of non-serum proteins [17]: seemed to lack this activity | cytotoxicity level, human leukemia [6]: Extremely high | cytotoxicity level, cervical carcinoma [7]: Extremely high | cytotoxicity level, metastatic melanoma [8]: Extremely high | control of tumor growth ([18]; I.P. day 1, 3, 7, taxol 18.0 mg/kg, taxol-2'-MPT 23.9 mg/kg, preliminary data): at least comparable to that of taxol | conversion to taxol in vivo ([18]; inferred from the xenograft results): converted rapidly to taxol in vivo
